What was measured:
Format in all cases: cell-based, human
BTSC73M = assay: alamarBlue cell viability, BTSC 73M; details: Table 4 library screen, alamarBlue; for IC50: Homo sapiens, read-out: 73M IC50
Procedure: (§1) First, the library was screened for biological activity against a set of three representative GBM BTSCs derived from GBM patients, including the very aggressive GBM BTSC lines, BTSC73M, BTSC30M, BTSC68EF. Dissociated BTSC spheres were seeded at 1500 cells/96-well and treated with drug compound or vehicle (DMSO) one day after plating. Cell viability following drug treatment was assessed after 72 hrs using the ALAMARBLUE™ assay (Invitrogen) according to the manufacturer's instructions. All culture experiments were performed in triplicate with a minimum of three wells per condition.
(§2) BTSC spheres were dissociated to single cells with the enzyme Accumax (Innovative Technologies), seeded at 1500 cells/96-well and treated with drug or vehicle (DMSO) one day after plating. […] BTSC spheres were dissociated to single cells as above and plated in 96 well plates in triplicate at 3000 cells/96-well. […] Cell viability following drug treatment was assessed three days later using the ALAMARBLUE™ assay (Invitrogen) according to the manufacturer's instructions. All culture experiments were performed in triplicate with a minimum of three wells per condition.

BTSC30M = assay: alamarBlue cell viability, BTSC 30M; details: Table 4 library screen, alamarBlue; for IC50: Homo sapiens, read-out: 30M IC50 (μM)
Procedure: as §1, §2

BTSC68EF = assay: alamarBlue cell viability, BTSC 68EF; details: Table 4 library screen, alamarBlue
Procedure: as §1, §2

| Compound | 73M IC50 (μM) (BTSC73M) | 30M IC50 (μM) (BTSC30M) | IC50 (BTSC30M) | other results |
| --- | --- | --- | --- | --- |
| CN(CC(=O)N(Cc1ccc(C2CCCCC2)cc1)c1ccc(CP(=O)(O)O)cc1)S(=O)(=O)c1c(F)c(F)c(F)c(F)c1F [Compound 21, (4-(N-(4-cyclohexylbenzyl)-2-(2,3,4,5,6-pentafluoro-N-methylphenylsulfonamido)acetamido)benzyl)phosphonic acid] | no effect | – | – | – |
| CCOC(=O)c1ccc(N(Cc2ccc(C3CCCCC3)cc2)C(=O)CN(C)S(=O)(=O)c2c(F)c(F)c(F)c(F)c2F)cc1 [Compound 40, ethyl 4-(N-(4-cyclohexylbenzyl)-2-(2,3,4,5,6-pentafluoro-N-methylphenylsulfonamido)acetamido)benzoate] | no effect | – | – | – |
| CN(CC(=O)N(Cc1ccc(C2CCCCC2)cc1)c1ccc(NS(=O)(=O)c2ccc3ccccc3c2)cc1)S(=O)(=O)c1c(F)c(F)c(F)c(F)c1F [Compound 12, N-(4-cyclohexylbenzyl)-N-(4-(naphthalene-2-sulfonamido)phenyl)-2-(2,3,4,5,6-pentafluoro-N-methylphenylsulfonamido)acetamide] | no effect | no effect | – | – |
| CN(CC(=O)N(Cc1ccc(C2CCCCC2)cc1)c1cc(C(=O)O)cc(C(=O)O)c1)S(=O)(=O)c1c(F)c(F)c(F)c(F)c1F [Compound 37, 5-(N-(4-cyclohexylbenzyl)-2-(2,3,4,5,6-pentafluoro-N-methylphenylsulfonamido)acetamido)isophthalic acid] | no effect | no effect | – | – |
| CN(CC(=O)N(Cc1ccc(C2CCCCC2)cc1)c1ccc(C#N)cc1)S(=O)(=O)c1c(F)c(F)c(F)c(F)c1F [Compound 34, N-(4-cyanophenyl)-N-(4-cyclohexylbenzyl)-2-(2,3,4,5,6-pentafluoro-N-methylphenylsulfonamido)acetamide] | no effect | – | 2.23 µM | – |
| CN(CC(=O)N(Cc1ccc(C2CCCCC2)cc1)c1ccc(-c2nnn[nH]2)cc1)S(=O)(=O)c1c(F)c(F)c(F)c(F)c1F [Compound 35, N-(4-(1H-tetrazol-5-yl)phenyl)-N-(4-cyclohexylbenzyl)-2-(2,3,4,5,6-pentafluoro-N-methylphenylsulfonamido)acetamide] | – | no effect | – | IC50 (BTSC73M): 2770 nM; 68EF IC50 (μM) (BTSC68EF): no effect |
| CC(=O)OCOC(=O)c1ccc(N(Cc2ccc(C3CCCCC3)cc2)C(=O)CN(C)S(=O)(=O)c2c(F)c(F)c(F)c(F)c2F)cc1 [Compound 26, acetoxymethyl 4-(N-(4-cyclohexylbenzyl)-2-(2,3,4,5,6-pentafluoro-N-methylphenylsulfonamido)acetamido)benzoate] | – | – | 1.95 µM | IC50 (BTSC73M): 4340 nM |
| CN(CC(=O)N(Cc1ccc(C2CCCCC2)cc1)c1cccc(O)c1)S(=O)(=O)c1c(F)c(F)c(F)c(F)c1F [Compound 30, N-(4-cyclohexylbenzyl)-N-(3-hydroxyphenyl)-2-(2,3,4,5,6-pentafluoro-N-methylphenylsulfonamido)acetamide] | – | – | 0.776 µM | IC50 (BTSC73M): 2840 nM |
| CN(CC(=O)N(Cc1ccc(C2CCCCC2)cc1)c1ccc(NS(=O)(=O)c2ccc3ncccc3c2)cc1)S(=O)(=O)c1c(F)c(F)c(F)c(F)c1F [Compound 13, N-(4-cyclohexylbenzyl)-2-(2,3,4,5,6-pentafluoro-N-methylphenylsulfonamido)-N-(4-(quinoline-6-sulfonamido)phenyl)acetamide] | no effect | no effect | – | – |
| CN(CC(=O)N(Cc1ccc(C2CCCCC2)cc1)c1ccc(NS(=O)(=O)c2cncn2C)cc1)S(=O)(=O)c1c(F)c(F)c(F)c(F)c1F [Compound 15, N-(4-cyclohexylbenzyl)-N-(4-(1-methyl-1H-imidazole-5-sulfonamido)phenyl)-2-(2,3,4,5,6-pentafluoro-N-methylphenylsulfonamido)acetamide] | – | – | 0.607 µM | – |
| CN(CC(=O)N(Cc1ccc(C2CCCCC2)cc1)c1ccc(O)cc1)S(=O)(=O)c1c(F)c(F)c(F)c(F)c1F [Compound 29, N-(4-cyclohexylbenzyl)-N-(4-hydroxphenyl)-2-(2,3,4,5,6-pentafluoro-N-methylphenylsulfonamido)acetamide] | – | – | 0.941 µM | IC50 (BTSC68EF; Homo sapiens, read-out: 68EF IC50): 1090 nM |
